Test results as given in the Kinase Knowledgebase extract (Sharma et al. 2016).

Experiments:
ROCK2 (human) [1] = biological target: ROCK2 (human) (UniProt O75116); assay: Assessment of ROCK2 Kinase Activity using Luciferin-Luciferase Assay
ROCK2 (human) [2] = biological target: ROCK2 (human) (UniProt O75116); assay: Assessment of ROCK2 Kinase Activity using IMAP Assay

Sequence of ROCK2 (human) (O75116 whole entry, looked up): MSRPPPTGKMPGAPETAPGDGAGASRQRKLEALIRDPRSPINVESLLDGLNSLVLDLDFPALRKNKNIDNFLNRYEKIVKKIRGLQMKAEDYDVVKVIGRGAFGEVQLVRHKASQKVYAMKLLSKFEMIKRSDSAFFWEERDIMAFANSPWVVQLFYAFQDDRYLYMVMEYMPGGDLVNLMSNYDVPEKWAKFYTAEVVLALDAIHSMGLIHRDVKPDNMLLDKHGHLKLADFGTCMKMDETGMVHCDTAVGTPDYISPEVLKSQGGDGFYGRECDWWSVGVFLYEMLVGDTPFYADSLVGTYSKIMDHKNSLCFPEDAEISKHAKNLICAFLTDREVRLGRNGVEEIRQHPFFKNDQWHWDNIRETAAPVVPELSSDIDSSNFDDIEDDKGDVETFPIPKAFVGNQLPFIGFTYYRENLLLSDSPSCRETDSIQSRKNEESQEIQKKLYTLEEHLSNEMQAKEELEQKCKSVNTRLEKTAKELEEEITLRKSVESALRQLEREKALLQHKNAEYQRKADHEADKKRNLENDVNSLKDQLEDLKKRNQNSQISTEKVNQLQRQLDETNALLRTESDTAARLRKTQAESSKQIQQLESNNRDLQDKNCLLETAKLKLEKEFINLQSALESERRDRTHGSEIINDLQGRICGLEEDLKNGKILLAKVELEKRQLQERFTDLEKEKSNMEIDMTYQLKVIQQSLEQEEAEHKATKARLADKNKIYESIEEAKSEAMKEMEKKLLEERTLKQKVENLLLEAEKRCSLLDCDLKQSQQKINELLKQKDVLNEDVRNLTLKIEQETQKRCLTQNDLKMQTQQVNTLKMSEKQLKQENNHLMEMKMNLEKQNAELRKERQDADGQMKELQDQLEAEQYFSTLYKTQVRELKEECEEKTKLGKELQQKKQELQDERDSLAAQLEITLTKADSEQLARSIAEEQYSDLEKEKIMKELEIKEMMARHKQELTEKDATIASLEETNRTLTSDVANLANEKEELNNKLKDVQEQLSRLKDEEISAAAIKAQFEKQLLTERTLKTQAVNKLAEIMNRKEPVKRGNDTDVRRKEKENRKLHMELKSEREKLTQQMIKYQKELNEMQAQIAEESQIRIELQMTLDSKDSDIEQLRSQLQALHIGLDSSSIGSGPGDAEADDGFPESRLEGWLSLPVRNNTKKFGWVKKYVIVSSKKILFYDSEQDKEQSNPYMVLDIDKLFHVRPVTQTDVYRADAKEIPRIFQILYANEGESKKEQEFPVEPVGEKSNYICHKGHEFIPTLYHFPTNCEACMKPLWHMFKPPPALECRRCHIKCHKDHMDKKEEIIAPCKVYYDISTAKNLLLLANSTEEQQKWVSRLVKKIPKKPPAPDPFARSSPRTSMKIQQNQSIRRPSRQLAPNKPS

SMILES	IC50 (ROCK2 (human) [1])	IC50 (ROCK2 (human) [2])
COc1ccc(C(=O)N2CCC[C@@H]2c2cccc(C(=O)Nc3nc4c(s3)CN(C)CC4)c2)cc1OC	30.7 nM	
COc1ccc(C(=O)N2CCC[C@@H]2c2cccc(C(=O)Nc3nc4c(s3)CN(C)CC4)c2)cc1Cl	38 nM	
Cc1nnnn1-c1ccc(C(=O)N2CCC[C@@H]2c2cccc(C(=O)Nc3nc4c(s3)CN(C)CC4)c2)cc1	91.4 nM	
COc1ccc(C(=O)N2CCC[C@@H]2c2cccc(C(=O)Nc3nc4c(s3)CN(C)CC4)c2)cc1C	45.1 nM	
N#Cc1cccc(NC(=O)N2CCC[C@@H]2c2cccc(C(=O)Nc3nc4c(s3)C[C@@H](N3CCOCC3)CC4)c2)c1		0.6 nM
CN1CCc2nc(NC(=O)c3cccc([C@H]4CCCN4C(=O)c4cc(-c5ccncc5)[nH]n4)c3)sc2C1		4.1 nM
CN1CCc2nc(NC(=O)c3cccc([C@H]4CCCN4C(=O)Nc4cccc(C(N)=O)c4)c3)sc2C1	94.6 nM	
CN1CCc2nc(NC(=O)c3cccc([C@H]4CCCN4C(=O)c4cccc(-c5cccnc5)c4)c3)sc2C1	80.4 nM	
N#Cc1cccc2c1CCN2C(=O)N1CCC[C@@H]1c1cccc(C(=O)Nc2nc3c(s2)C[C@@H](N2CCOCC2)CC3)c1		2.9 nM

Next, values leading:

IC50 (ROCK2 (human) [1])	IC50 (ROCK2 (human) [2])	SMILES
2.6 nM	11.2 nM	CN1CCc2nc(NC(=O)c3cccc([C@H]4CCCN4C(=O)c4ccc(-c5cnco5)cc4)c3)sc2C1
5.8 nM	7.9 nM	COc1ccc(C(=O)N2CCC[C@@H]2c2cccc(C(=O)Nc3nc4c(s3)C[C@@H](N3CCOCC3)CC4)c2)cc1Cl
23.4 nM		CN1CCc2nc(NC(=O)c3cccc(OCC(=O)Nc4ccc(C#N)cc4)c3)sc2C1
2.1 nM	4 nM	CN1CCc2nc(NC(=O)c3cccc([C@H]4CCCN4C(=O)c4ccc5cc(O)ccc5c4)c3)sc2C1
2.5 nM	7.4 nM	CN1CCc2nc(NC(=O)c3cccc([C@H]4CCCN4C(=O)c4cn5cc(C(N)=O)ccc5n4)c3)sc2C1
6 nM	44 nM	CN1CCc2nc(NC(=O)c3cccc([C@H]4CCCN4C(=O)c4nnn(-c5nonc5N)c4-c4ccccc4)c3)sc2C1
5.1 nM	32 nM	N#Cc1ccc(NC(=O)COc2cccc(C(=O)Nc3nc4c(s3)C[C@@H](NCCC(F)(F)F)CC4)c2)cc1
6.1 nM	16 nM	CN1CCc2nc(NC(=O)c3cccc([C@H]4CCCN4C(=O)c4csc(-c5ccncc5)n4)c3)sc2C1
14.5 nM		CN1CCc2nc(NC(=O)c3cccc([C@H]4CCCN4C(=O)c4ccc(-n5ccnc5)cc4)c3)sc2C1
5.2 nM	27 nM	N#CCCN[C@H]1CCc2nc(NC(=O)c3cccc(OCC(=O)Nc4ccc(C#N)cc4)c3)sc2C1
4 nM	13 nM	CN1CCc2nc(NC(=O)c3cccc([C@H]4CCCN4C(=O)c4csc(-c5cccnc5)n4)c3)sc2C1
